31 molecules from patent publication US12325701B2, “YKL-40 inhibitors and their therapeutic” (Molecure S.A., priority 2022, dated 2025) can be followed below.

Structures can show the parent of a compound that is named as a salt. Where two headings read alike, the source gives them in different places.

This assay addresses YKL-40 (YKL-40-histag, chitin binding site) (Homo sapiens (Human), UniProt P36222). In words: YKL-40:4 assay, competitive chitin binding site AlphaScreen.
Setting [1] is: competition with biotinylated compound 4, 20 nM, YKL-40-histag 2.5 nM, read-out: YKL-40:4, IC50/Kd (IC50 range).

YKL-40 (YKL-40-histag, chitin binding site), sequence (P36222 22-383): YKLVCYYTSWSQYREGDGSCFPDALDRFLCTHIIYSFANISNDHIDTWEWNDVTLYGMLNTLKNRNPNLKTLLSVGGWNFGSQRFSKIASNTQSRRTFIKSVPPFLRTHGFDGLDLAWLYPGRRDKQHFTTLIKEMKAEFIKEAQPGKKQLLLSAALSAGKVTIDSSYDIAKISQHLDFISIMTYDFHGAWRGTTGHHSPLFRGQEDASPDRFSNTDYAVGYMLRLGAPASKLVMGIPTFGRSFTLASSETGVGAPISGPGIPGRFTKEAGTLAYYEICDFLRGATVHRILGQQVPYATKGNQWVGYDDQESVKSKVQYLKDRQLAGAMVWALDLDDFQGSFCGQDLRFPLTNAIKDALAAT

On to `C[C@H]1CN(C2CCN(c3cc(CO)ccn3)CC2)[C@@H](Cc2ccc(Cl)cc2)CO1` [Compound 130, (2-(4-((2S,5S)-5-(4-chlorobenzyl)-2-methylmorpholino)piperidin-1-yl)pyridin-4-yl)methanol 2,2,2-trifluoroacetate], for which the IC50 was above 10 µM.
Take `C[C@H]1CN(C2CCN(c3ncns3)CC2)[C@@H](Cc2ccc(Cl)cc2)CO1` [Compound 179, (2S,5S)-4-(1-(1,2,4-thiadiazol-5-yl)piperidin-4-yl)-5-(4-chlorobenzyl)-2-methylmorpholine 2,2,2-trifluoroacetate]: the IC50 was above 10 µM.
Same read-out and setting: the value for `C[C@H]1CN(C2CCN(c3ncccc3O)CC2)[C@@H](Cc2ccc(Cl)cc2)CO1` [Compound 160, 2-(4-((2S,5S)-5-(4-chlorobenzyl)-2-methylmorpholino)piperidin-1-yl)pyridin-3-ol 2,2,2-trifluoroacetate] was above 10 µM; that for `C[C@H]1CN(C2CCN(c3ncccc3CO)CC2)[C@@H](Cc2ccc(Cl)cc2)CO1` [Compound 120, (2-(4-((2S,5S)-5-(4-chlorobenzyl)-2-methylmorpholino)piperidin-1-yl)pyridin-3-yl)methanol 2,2,2-trifluoroacetate] was above 10 µM; that for `CC(C)c1nc(N2CCC(N3C[C@H](C)OC[C@@H]3Cc3ccc(Cl)cc3)CC2)no1` [Compound 163, (2S,5S)-5-(4-chlorobenzyl)-4-(1-(5-isopropyl-1,2,4-oxadiazol-3-yl)piperidin-4-yl)-2-methylmorpholine 2,2,2-trifluoroacetate] was above 10 µM.
As for `C[C@H]1CN(C2CCN(c3ccncc3)CC2)[C@@H](Cc2ccc(Cl)cc2)CO1` [Example 28, (2S,5S)-5-(4-chlorobenzyl)-2-methyl-4-(1-(pyridin-4-yl)piperidin-4-yl)morpholine 2,2,2-trifluoroacetate], the IC50 was above 10 µM.
`Cc1ncnc(N2CCC(N3C[C@H](C)OC[C@@H]3Cc3ccc(Cl)cc3)CC2)n1` [Compound 172, (2S,5S)-5-(4-chlorobenzyl)-2-methyl-4-(1-(4-methyl-1,3,5-triazin-2-yl)piperidin-4-yl)morpholine 2,2,2-trifluoroacetate] returned an IC50 above 10 µM.
Same read-out and setting: the value for `C[C@H]1CN(C2CCN(c3cccnc3)CC2)[C@@H](Cc2ccc(Cl)cc2)CO1` [Example 27, (2S,5S)-5-(4-chlorobenzyl)-2-methyl-4-(1-(pyridin-3-yl)piperidin-4-yl)morpholine 2,2,2-trifluoroacetate] was above 10 µM.
Turning to `C[C@H]1CN(C2CCN(c3cc(C(F)(F)F)ncn3)CC2)[C@@H](Cc2ccc(Cl)cc2)CO1` [Compound 145, (2S,5S)-5-(4-chlorobenzyl)-2-methyl-4-(1-(6-(trifluoromethyl)pyrimidin-4-yl)piperidin-4-yl)morpholine hydrochloride], the IC50 under setting [1] was above 10 µM.
In turn, `C[C@H]1CN(C2CCN(c3nnn[nH]3)CC2)[C@@H](Cc2ccc(Cl)cc2)CO1` [Compound 166, (2S,5S)-4-(1-(1H-tetrazol-5-yl)piperidin-4-yl)-5-(4-chlorobenzyl)-2-methylmorpholine 2,2,2-trifluoroacetate] displayed an IC50 above 10 µM.
For the molecule `CC(C)C[C@H]1CN(C2CCN(c3ccccn3)CC2)[C@@H](Cc2ccc(Cl)cc2)CN1C(=O)OC(C)(C)C` [Compound 2e, tert-butyl (2S,5S)-5-(4-chlorobenzyl)-2-isobutyl-4-(1-(pyridin-2-yl)piperidin-4-yl)piperazine-1-carboxylate], the IC50 under setting [1] is above 10 µM.
`C[C@H]1CN(C2CCN(c3ncnc(C#N)n3)CC2)[C@@H](Cc2ccc(Cl)cc2)CO1` [Compound 173, 4-(4-((2S,5S)-5-(4-chlorobenzyl)-2-methylmorpholino)piperidin-1-yl)-1,3,5-triazine-2-carbonitrile 2,2,2-trifluoroacetate]: the IC50 was above 10 µM.
With `COC(=O)c1cccnc1N1CCC(N2C[C@H](C)OC[C@@H]2Cc2ccc(Cl)cc2)CC1` [Compound 117, methyl 2-(4-((2S,5S)-5-(4-chlorobenzyl)-2-methylmorpholino)piperidin-1-yl)nicotinate 2,2,2-trifluoroacetate], the IC50 is above 10 µM.
On the same count and under the same terms, as for `C[C@H]1CN(C2CCN(c3c(F)cccc3F)CC2)[C@@H](Cc2ccc(Cl)cc2)CO1` [Compound 123, (2S,5S)-5-(4-chlorobenzyl)-4-(1-(2,6-difluorophenyl)piperidin-4-yl)-2-methylmorpholine 2,2,2-trifluoroacetate], the figure is above 10 µM; as for `C[C@H]1CN(C2CCN(c3ncc(F)cc3F)CC2)[C@@H](Cc2ccc(Cl)cc2)CO1` [Example 25, (2S,5S)-5-(4-chlorobenzyl)-4-(1-(3,5-difluoropyridin-2-yl)piperidin-4-yl)-2-methylmorpholine 2,2,2-trifluoroacetate], above 10 µM.
`CC(C)C[C@H]1CN(C2CCN(c3ccccn3)CC2)[C@@H](Cc2ccc(Cl)cc2)CN1CC(=O)OC(C)(C)C` [Compound 2g, tert-butyl 2-((2S,5S)-5-(4-chlorobenzyl)-2-isobutyl-4-(1-(pyridin-2-yl)piperidin-4-yl)piperazin-1-yl)acetate] yielded an IC50 above 10 µM.
Same read-out and setting: as for `C[C@H]1CN(C2CCN(c3nccc(C(=O)O)c3F)CC2)[C@@H](Cc2ccc(Cl)cc2)CO1` [Compound 128, 2-(4-((2S,5S)-5-(4-chlorobenzyl)-2-methylmorpholino)piperidin-1-yl)-3-fluoroisonicotinic acid 2,2,2-trifluoroacetate], the figure is above 10 µM.
In the case of `COC(=O)c1ccnc(N2CCC(N3C[C@H](C)OC[C@@H]3Cc3ccc(Cl)cc3)CC2)c1` [Compound 124, methyl 2-(4-((2S,5S)-5-(4-chlorobenzyl)-2-methylmorpholino)piperidin-1-yl)isonicotinate], the IC50 under setting [1] was above 10 µM.
In turn, `Clc1ccc(C[C@H]2COc3ccccc3CN2C2CCN(c3ccccn3)CC2)cc1` [Compound 81, (S)-3-(4-chlorobenzyl)-4-(1-(pyridin-2-yl)piperidin-4-yl)-2,3,4,5-tetrahydrobenzof[1,4]oxazepine hydrochloride] had an IC50 above 10 µM.
For the molecule `Cc1noc(N2CCC(N3C[C@H](C)OC[C@@H]3Cc3ccc(Cl)cc3)CC2)n1` [Compound 188, (2S,5S)-5-(4-chlorobenzyl)-2-methyl-4-(1-(3-methyl-1,2,4-oxadiazol-5-yl)piperidin-4-yl)morpholine 2,2,2-trifluoroacetate], the IC50 was above 10 µM.
Still for that read-out and setting: the value for `C[C@H]1CN(C2CCN(c3ncnc(N)n3)CC2)[C@@H](Cc2ccc(Cl)cc2)CO1` [Compound 174, 4-(4-((2S,5S)-5-(4-chlorobenzyl)-2-methylmorpholino)piperidin-1-yl)-1,3,5-triazin-2-amine 2,2,2-trifluoroacetate] was above 10 µM.
`C[C@H]1CN(C2CCN(c3cc(Cl)ccc3C#N)CC2)[C@@H](Cc2ccc(Cl)cc2)CO1` [Compound 115, 4-chloro-2-(4-((2S,5S)-5-(4-chlorobenzyl)-2-methylmorpholino)piperidin-1-yl)benzonitrile 2,2,2-trifluoroacetate] returned an IC50 above 10 µM.
Same read-out and setting: the value for `Cc1nnc(N2CCC(N3C[C@H](C)OC[C@@H]3Cc3ccc(Cl)cc3)CC2)s1` [Compound 182, (2S,5S)-5-(4-chlorobenzyl)-2-methyl-4-(1-(5-methyl-1,3,4-thiadiazol-2-yl)piperidin-4-yl)morpholine 2,2,2-trifluoroacetate] was above 10 µM.
Turning to `COC(=O)c1ccnc(N2CCC(N3C[C@H](C)OC[C@@H]3Cc3ccc(Cl)cc3)CC2)c1F` [Compound 122, methyl 2-(4-((2S,5S)-5-(4-chlorobenzyl)-2-methylmorpholino)piperidin-1-yl)-3-fluoroisonicotinate], the IC50 under setting [1] was above 10 µM.
In turn, `COc1ncnc(N2CCC(N3C[C@H](C)OC[C@@H]3Cc3ccc(Cl)cc3)CC2)n1` [Compound 171, (2S,5S)-5-(4-chlorobenzyl)-4-(1-(4-methoxy-1,3,5-triazin-2-yl)piperidin-4-yl)-2-methylmorpholine 2,2,2-trifluoroacetate] yielded an IC50 above 10 µM.
Still for that read-out and setting: the value for `C[C@H]1CN(C2CCN(c3cc(C(N)=O)ccn3)CC2)[C@@H](Cc2ccc(Cl)cc2)CO1` [Compound 132, 2-(4-((2S,5S)-5-(4-chlorobenzyl)-2-methylmorpholino)piperidin-1-yl)isonicotinamide 2,2,2-trifluoroacetate] was above 10 µM.
Regarding `CC(C)C1OC[C@H](Cc2ccc(Cl)cc2)N1C1CCN(c2ccccn2)CC1` (stereo partly drawn) [Compound 150, (4S)-4-(4-chlorobenzyl)-2-isopropyl-3-(1-(pyridin-2-yl)piperidin-4-yl)oxazolidine hydrochloride], the IC50 under setting [1] is above 10 µM.
The molecule `C[C@H]1CN(C2CCN(c3cc(F)ncn3)CC2)[C@@H](Cc2ccc(Cl)cc2)CO1` [Example 24, (2S,5S)-5-(4-chlorobenzyl)-4-(1-(6-fluoropyrimidin-4-yl)piperidin-4-yl)-2-methylmorpholine 2,2,2-trifluoroacetate] came in with an IC50 above 10 µM.
Turning to `COC(=O)c1ccnc(F)c1N1CCC(N2C[C@H](C)OC[C@@H]2Cc2ccc(Cl)cc2)CC1` [Compound 121, methyl 3-(4-((2S,5S)-5-(4-chlorobenzyl)-2-methylmorpholino)piperidin-1-yl)-2-fluoroisonicotinate], the IC50 under setting [1] was above 10 µM.
The same measure, in the same setting: the value for `Cc1cccc(N2CCC(N3C[C@H](C)OC[C@@H]3Cc3ccc(Cl)cc3)CC2)n1` [Compound 135, (2S,5S)-5-(4-chlorobenzyl)-2-methyl-4-(1-(6-methylpyridin-2-yl)piperidin-4-yl)morpholine hydrochloride] was above 10 µM; that for `Cc1ccc(N2CCC(N3C[C@H](C)OC[C@@H]3Cc3ccc(Cl)cc3)CC2)nc1` [Compound 136, (2S,5S)-5-(4-chlorobenzyl)-2-methyl-4-(1-(5-methylpyridin-2-yl)piperidin-4-yl)morpholine hydrochloride] was above 10 µM.
